Source: patent publication US20250382570A1, “GENERATION AND APPLICATION OF FUNCTIONAL HUMAN ASTROCYTES FROM PLURIPOTENT STEM CELLS” (The Regents of the University of California, priority 2022, published 2025)

Tested on: iAstrocytes
Assay: Time-lapse imaging of phagocytosis of pHrodoRed-conjugated myelin by iAstrocytes
Format: cell-based, human
Settings: imaging over 24 h
Experimental: FIGS. 3A-3B: (FIG. 3A) iAstrocytes are compatible for study with microglia co-cultures. Cultured iAstrocytes are subsequently incubated with iPSC-derived microglia (Abud et al., 2017). (FIG. 3B) iAstrocytes are labeled with GFAP and iPSC-derived microglia are labeled with Iba1 (light grey). The differentiation protocols for both microglia and astrocytes are serum-free and thus, make them compatible to study together without the confounds of serum activation of glia. Astrocytes phagocytose pHrodoRed-labeled myelin.
(FIGS. 4A-4C, FIG. 4A: 0 hour; FIG. 4B, 12 hours; and FIG. 4C, 24 hours). Phagocytosis can be visualized by pHrodoRed internalization which is absent at time zero (FIG. 4A). Phagocytosis of pHrodoRed-conjugated myelin is detected in iAstrocytes at 12 h (FIG. 4B), which gradually increases with time (24 h, FIG. 4C). FIG. 4D graphically depicts total red object area (y-axis) versus time in hours (x-axis).

TGFβ: Growth factor stated as necessary for quiescent astrocytes; inhibits myelin phagocytosis by iAstrocytes
effect on phagocytosis of myelin by iAstrocytes: inhibited
